This test has as its target T1, SIRT1 (Homo sapiens, UniProt Q96EB6).
T1 sequence (Q96EB6 1-747): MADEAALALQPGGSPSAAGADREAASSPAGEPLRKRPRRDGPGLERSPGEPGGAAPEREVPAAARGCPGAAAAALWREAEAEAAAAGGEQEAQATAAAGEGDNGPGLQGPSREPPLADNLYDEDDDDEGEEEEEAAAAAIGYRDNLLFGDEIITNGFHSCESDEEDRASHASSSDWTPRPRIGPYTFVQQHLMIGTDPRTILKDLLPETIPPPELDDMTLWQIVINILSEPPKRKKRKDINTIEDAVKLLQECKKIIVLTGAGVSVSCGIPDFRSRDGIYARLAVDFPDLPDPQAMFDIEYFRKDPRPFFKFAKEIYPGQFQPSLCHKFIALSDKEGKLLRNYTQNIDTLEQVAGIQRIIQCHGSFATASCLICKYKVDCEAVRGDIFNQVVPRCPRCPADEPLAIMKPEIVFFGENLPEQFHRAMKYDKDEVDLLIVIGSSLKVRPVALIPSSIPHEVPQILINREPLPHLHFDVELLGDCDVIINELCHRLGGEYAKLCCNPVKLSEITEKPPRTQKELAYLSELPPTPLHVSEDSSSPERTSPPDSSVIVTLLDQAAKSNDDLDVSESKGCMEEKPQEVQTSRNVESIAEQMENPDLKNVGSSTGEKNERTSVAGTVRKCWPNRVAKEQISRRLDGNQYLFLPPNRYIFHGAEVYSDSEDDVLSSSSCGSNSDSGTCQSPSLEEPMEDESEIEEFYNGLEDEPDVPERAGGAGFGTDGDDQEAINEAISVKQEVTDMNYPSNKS
The test is described as follows: Mass spectrometry based assay to identify modulators of SIRT1 activity (deacetylation of p53-based acetylated peptide). As to conditions: 10 nM SIRT1, 0.5 μM peptide substrate, 120 μM βNAD+, 25 minutes at 25° C.; for EC1.5 μM: SIRT1 activation. It is filed as biochemical. The text has this: A mass spectrometry based assay was used to identify modulators of SIRT1 activity. The mass spectrometry based assay utilizes a peptide having 20 amino acid residues as follows: Ac-EE-K(biotin)-GQSTSSHSK(Ac)NleSTEG-K(5TMR)-EE-NH2 (SEQ ID NO: 1) wherein K(Ac) is an acetylated lysine residue and Nle is a norleucine. The peptide is labeled with the fluorophore 5TMR (excitation 540 nm/emission 580 nm) at the C-terminus. The sequence of the peptide substrate is based on p53 with several modifications. In addition, the methionine residue naturally present in the sequence was replaced with the norleucine because the methionine may be susceptible to oxidation during synthesis and purification.
The mass spectrometry assay is conducted as follows: 0.5 μM peptide substrate and 120 μM βNAD^+ is incubated with 10 nM SIRT1 for 25 minutes at 25° C. in a reaction buffer (50 mM Tris-acetate pH 8, 137 mM NaCl, 2.7 mM KCl, 1 mM MgCl2, 5 mM DTT, 0.05% BSA). Test compounds may be added to the reaction as described above. […] After the 25 minute incubation with SIRT1, 10 μL of 10% formic acid is added to stop the reaction. Reactions are sealed and frozen for later mass spec analysis. Determination of the mass of the substrate peptide allows for precise determination of the degree of acetylation (i.e. starting material) as compared to deacetylated peptide (product).
A control for inhibition of sirtuin activity is conducted by adding 1 μL of 500 mM nicotinamide as a negative control at the start of the reaction (e.g., permits determination of maximum sirtuin inhibition). A control for activation of sirtuin activity is conducted using 10 nM of sirtuin protein, with 1 μL of DMSO in place of compound, to determine the amount of deacetylation of the substrate at a given timepoint within the linear range of the assay. This timepoint is the same as that used for test compounds and, within the linear range, the endpoint represents a change in velocity.
For the above assay, SIRT1 protein was expressed and purified as follows. […] The protein was expressed by induction with 1 mM IPTG as an N-terminal His-tag fusion protein at 18° C. overnight and harvested at 30,000×g. Cells were lysed with lysozyme in lysis buffer (50 mM Tris-HCl, 2 mM Tris[2-carboxyethyl]phosphine (TCEP), 10 μM ZnCl2, 200 mM NaCl) and further treated with sonication for 10 min for complete lysis. The protein was purified over a Ni-NTA column (Amersham) and fractions containing pure protein were pooled, concentrated and run over a sizing column (Sephadex S200 26/60 global). The peak containing soluble protein was collected and run on an Ion-exchange column (MonoQ). Gradient elution (200 mM-500 mM NaCl) yielded pure protein. This protein was concentrated and dialyzed against dialysis buffer (20 mM Tris-HCl, 2 mM TCEP) overnight. The protein was aliquoted and frozen at −80° C. until further use.
Sirtuin modulating compounds that activated SIRT1 were identified using the assay described above and are shown below in Tables 1 and 2. The EC1.5 values for the activating compounds are represented by A (EC1.5<1.0 μM), B (EC1.5 1-25 μM), C (EC1.5>25 μM). The percent maximum fold activation is represented by A (Fold activation>200%) or B (Fold Activation<200%).

For the compound `O=C(Nc1nccs1)c1cccc2c(=O)cc(-c3cccc(C(F)F)c3)[nH]c12` [Compound 431], the “% Fold Act. (percent maximum fold activation)” value was “A (Fold activation>200%)” and the “EC1.5 μM” value was “A (EC1.5<1.0 μM)”.
The matching figures for `Cn1c(-c2cccc(C(F)(F)F)c2)nc2c(NC(=O)C3CCC(=O)N3)cccc2c1=O` (stereo not shown) [Compound 339, N-(3-methyl-4-oxo-2-(3-(trifluoromethyl)phenyl)-3,4-dihydroquinazolin-8-yl)-5-oxopyrrolidine-2-carboxamide]: “B (Fold Activation<200%)” and “C (EC1.5>25 μM)”.
The matching figures for `Cn1c(-c2cccc(C(F)(F)F)c2)nc2c(C(=O)Nc3cccc(CN4CCCC4)n3)cccc2c1=O` [Compound 351]: “A (Fold activation>200%)” and “A (EC1.5<1.0 μM)”.
As to `CC(C)Cn1c(-c2cccc(C(F)(F)F)c2)nc2c(C(=O)Nc3ccccn3)cccc2c1=O` [Compound 271], the “% Fold Act. (percent maximum fold activation)” value is listed as “B (Fold Activation<200%)” and the “EC1.5 μM” value is “B (EC1.5 1-25 μM)”.
Take `Cn1c(-c2ccc(C#N)cc2)nc2c(C(=O)Nc3ccccn3)cccc2c1=O` [Compound 254]: the “% Fold Act. (percent maximum fold activation)” value was “B (Fold Activation<200%)” and the “EC1.5 μM” value was “C (EC1.5>25 μM)”.
Take `Cn1c(-c2ccc(OC(F)(F)F)cc2)nc2c(C(=O)Nc3ccccn3)cccc2c1=O` [Compound 211]: the “% Fold Act. (percent maximum fold activation)” value was “B (Fold Activation<200%)” and the “EC1.5 μM” value was “C (EC1.5>25 μM)”.
The matching figures for `Cn1c(-c2cccc(Cl)c2)nc2c(C(=O)Nc3cccnc3)cccc2c1=O` [Compound 243]: “B (Fold Activation<200%)” and “B (EC1.5 1-25 μM)”.
For `O=C(Nc1cccc2c(=O)[nH]c(-c3ccccc3OC(F)F)nc12)c1cnccn1` [Compound 313], the “% Fold Act. (percent maximum fold activation)” value was “A (Fold activation>200%)” and the “EC1.5 μM” value was “A (EC1.5<1.0 μM)”.
In the case of `Cn1c(-c2ccncn2)nc2c(NC(=O)c3cnccn3)cccc2c1=O` [Compound 280], the “% Fold Act. (percent maximum fold activation)” value is recorded as “B (Fold Activation<200%)” and the “EC1.5 μM” value is on record as “C (EC1.5>25 μM)”.
As to `Cn1c(-c2cccc(OC(F)F)c2)nc2c(NC(=O)c3cnccn3)cccc2c1=O` [Compound 315], the “% Fold Act. (percent maximum fold activation)” value is recorded as “A (Fold activation>200%)” and the “EC1.5 μM” value was “A (EC1.5<1.0 μM)”.
Take `Cn1c(-c2ccccn2)nc2c(NC(=O)c3cnccn3)cccc2c1=O` [Compound 277]: the “% Fold Act. (percent maximum fold activation)” value is listed as “B (Fold Activation<200%)” and the “EC1.5 μM” value is given as “C (EC1.5>25 μM)”.
`O=C(NC1CCOCC1)c1cccc2c(=O)cc(-c3cccc(C(F)(F)F)c3)[nH]c12` [Compound 412]: the “% Fold Act. (percent maximum fold activation)” value was “A (Fold activation>200%)” and the “EC1.5 μM” value is “B (EC1.5 1-25 μM)”.
Regarding `Cn1c(-c2cccc(C(F)(F)F)c2)nc2c(C(=O)Nc3ccnc(CN4CCCC4)n3)cccc2c1=O` [Compound 359], the “% Fold Act. (percent maximum fold activation)” value is reported as “A (Fold activation>200%)” and the “EC1.5 μM” value is on record as “B (EC1.5 1-25 μM)”.
`Cn1c(-c2cccc(C(F)F)c2)nc2c(C(=O)Nc3ccccn3)cccc2c1=O` [Compound 323]: the “% Fold Act. (percent maximum fold activation)” value is “B (Fold Activation<200%)” and the “EC1.5 μM” value is on record as “C (EC1.5>25 μM)”.
The matching figures for `Cn1c(-c2cccc(C(F)(F)F)c2)nc2c(NC(=O)c3cccc(CN4CCCC4)n3)cccc2c1=O` [Compound 333]: “A (Fold activation>200%)” and “A (EC1.5<1.0 μM)”.
The matching figures for `Cn1c(-c2cccc(C(F)(F)F)c2)nc2c(NC(=O)C3CCCC(=O)N3)cccc2c1=O` (stereo not shown) [Compound 365]: “A (Fold activation>200%)” and “B (EC1.5 1-25 μM)”.
Turning to `Cn1c(-c2ccccc2OC(F)F)nc2c(NC(=O)c3cnccn3)cccc2c1=O` [Compound 312], the “% Fold Act. (percent maximum fold activation)” value is given as “A (Fold activation>200%)” and the “EC1.5 μM” value is listed as “A (EC1.5<1.0 μM)”.

The values above are taken from patent publication US9326986B2, “Quinazolinone, quinolone and related analogs as sirtuin modulators” (GLAXOSMITHKLINE LLC, priority 2008, dated 2016).
